Data from US20030103900A1, “Use of disease-associated organisms” (priority 2001, published 2003).

Tested on: non-Hodgkins lymphoma
Assay: broad spectrum antibiotic cover in a non-Hodgkins lymphoma patient with mixed bacterial pneumonia
Type: in vivo, human
Conditions: given together: Penicillin 1 million units three times a day i.m., chloramphenicol 1.25 g three times a day i.m., flagyl 400 mg three times a day orally; following one week
Text: If, on the other hand, a disease-associated organism is found within the body of a patient, which organism is classified as beneficial regarding a targeted disease (i.e., the activity of the organism is either causative or synergistic toward the disease), a therapeutic agent which is antagonistic toward such beneficial organism may be administered to the patient for aiding the patient's immune system in fighting against such causative or synergistic organism. Organisms have often been reported to exist in cancer patients both in tumor biopsies and in overt disease, in the treatment of a non-Hodgkins lymphoma patient suffering from mixed bacterial pneumonia, inventor prescribed broad spectrum antibiotic cover-Penicillin 1 million units three times a day, chloramphenicol 1.25 g three times a day, and flagyl 400 mg three times a day; the first two by intramuscular route and the flagyl orally.

Molecule | change of cancerous lymph nodes
O=C(N[C@H](CO)[C@H](O)c1ccc([N+](=O)[O-])cc1)C(Cl)Cl [chloramphenicol] | cancerous lymph nodes shrank and softened
Cc1ncc([N+](=O)[O-])n1CCO [flagyl] | cancerous lymph nodes shrank and softened
Penicillin | cancerous lymph nodes shrank and softened
